In US5593970A, “Heterocyclic anthracycline analogs” (priority 1994, dated 1997):
Entries after “also recorded” stand apart in the source; their conditions may differ. Like-named read-outs stand apart in the source and are kept apart here.

Assays:
[1] = tested on: tumor cell lines; assay: Tumor clonogenic assay, overall; type: cell-based
Description: For the IN VITRO test, we chose a tumor clonogenic assay which measures the ability of tumoral cells to form colonies (multicellular growth units) as a result of cell division in semisolid agar support (2,3). A more elaborate version of this fundamental assay, the soft agar colony formation disk diffusion assay was used. This assay defines the relative activity of one particular drug versus a tumoral cell line type. The effect of the test drug against tumoral cells could be measured by its inhibitory capacity against colony formation after the delivery of the compound, in different concentrations on an filter disk(4).
A modified technique of this assay was used in order to investigate the antiproliferative activity of candidate compounds. Tumoral cells from solid tumors and ascitic lines were plated separately in a two layer agar matrix. Cell lines to be tested were suspended in an upper layer of 0.4% Noble agar (Difco#00142-01) in RPMI-1066 (Gibco#3201875) at a yield varying between 10^4 to 2×10^5 cells per 60 mm Petri dish. Plating efficiency was determined for each line in order to achieve an optimal number of colonies per dish. Plates were examined before drug administration to confirm a uniform dispersion of single cells. The bottom layer consisted of 0.8% Noble agar, 0.8% Tryptic Soy Broth (difco#0037001)in CMRL-1066/Fischer's. The bottom layers were used within 2 and 9 days of preparation. Plated dishes (bottom layer of agar, upper layer of cells and administered drug were incubated in humidified atmosphere at 37° C., 5% CO2 for 10-20 days depending upon the time necessary to observe adequate colonies (defined as a cell aggregate of more than 50 cells) both control and drug inhibited. Drugs were administered on a paper filter disk (Whatman No. 1) of 6.5 mm diameter placed on the upper layer at 1/3 distance from the edge of the dish. The anti-clonogenic activity of the compounds was measured as the zone of inhibition from the disk edge to the most proximal colonies. This zone of inhibition was checked on an inverted microscope (40×) and was measured with a micrometer mounted in the eyepiece. The ocular micrometer was calibrated with a stage micrometer set for a particular combination of ocular and objective lenses.
200 units of activity are equivalent to 6.5 mm distance from the disk edge to the first colonies (5). […] We made a modification of the initial technique by not plating a solid tumor and a leukemia simultaneously in the same Petri dish. Anti-clonogenic tests performed on leukemia cell line have helped in the discovery of the majority of current clinically used cytostatic drugs. Our tests on solid tumor lines (animal or human) may help define active compounds with solid tumor specificity. This specific activity would be indicated by a higher level of cloning inhibition in solid tumors versus leukemias (6).

[2] = tested on: BE-1; assay: Soft agar colony formation disk diffusion assay; type: cell-based, human
Summary of the method: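 Antiproliferative activity is scored as the distance from the filter disk to the first colonies in a soft agar clonogenic culture. Each solid-tumour line is plated on its own dish, with compound dissolved in DMSO and diluted in water before loading on the disk.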

[3] = tested on: SC Lung; assay: NCI assay, average per cancer type; settings: SC Lung
[4] = tested on: SC Lung; settings: sc lung cancer cell lines, 48 h
[5] = tested on: Melanoma; assay: NCI assay, average per cancer type; settings: Melanoma
[6] = tested on: NSC Lung; settings: nsc lung cancer cell lines, 48 h
[7] = tested on: solid tumors; assay: NCI assay, mean potency in solid tumors; settings: solid tumors
[8] = tested on: CNS; assay: NCI assay, average per cancer type; settings: CNS
[9] = tested on: Ovarian; settings: ovarian cancer cell lines, 48 h
[10] = tested on: Leukemia; settings: leukemia cell lines, 48 h
[11] = tested on: Leukemia; assay: NCI assay, average per cancer type; settings: Leukemia
[12] = tested on: Colon; assay: NCI assay, average per cancer type; settings: Colon
[13] = tested on: solid tumors; settings: solid tumor cell lines, 48 h

| Molecule | activity and specificity in words [1] | zone of inhibition ([2]; 10 μg/DISK) [Zone Units] | zone of inhibition ([2]; 100 μg/DISK) [Zone Units] | other results |
| --- | --- | --- | --- | --- |
| 3-(2-acetoxy-1-propeneketal)aceto-6-acetoxy-1-hydroxy-1,2,3,4-tetrahydro-(2-oxygen)naphtacene-5,12-dione and 3-(2-acetoxy-1-propeneketal)-aceto-11-acetoxy-1-hydroxy-1,2,3,4-tetrahydro-(2-oxygen)naphtacene-5,12-dione [BCH-710] | most active |  |  | activity and specificity in words ([1]; listed as BCH 710): specificity for the MATB/ADR rat breast ADR resistant adenocarcinoma and mouse ovarian reticulum cell sarcoma |
| COC(=O)[C@H]1CC2=C(C(=O)c3c(cc4ccccc4c3O)C2=O)[C@H](O[C@H]2C[C@H](NC(=O)C(F)(F)F)[C@H](O)[C@H](C)O2)O1 (mixture of isomers) [BCH-692, (1'S,1S,3R) and (1'S,1R,3S) Methyl[11-hydroxy-1-(2',3',6'-trideoxy-3'-trifluoroacetamido-4'-hydroxy-L-lyxohexopyranose)-5,12-dioxo-3,4,5,12-tetrahydro-anthraceno[2,3-c]pyran-3-yl]formate] | most active; also recorded: Good broad spectrum activity | 0 | 100.0 ± 50.0 |  |
| CCOC(=O)[C@H]1CC2=C(C(=O)c3cc4ccccc4c(O)c3C2=O)[C@H](O[C@H]2C[C@H](NC(=O)C(F)(F)F)[C@H](O)[C@H](C)O2)O1 [BCH-684, (1'S,1S,3R)Ethyl[6-hydroxy-5,12-dioxo-1-(3'-trifluoroacetamido-1-daunosaminyl)-3,4,5,12-tetrahydroanthraceno(2,3-C)pyran-3-yl]formate] | most active; also recorded: Good broad spectrum activity |  |  |  |
| COC(=O)[C@@H]1CC2=C(C(=O)c3c(cc4ccccc4c3O)C2=O)[C@@H](O[C@H]2C[C@H](NC(=O)C(F)(F)F)[C@H](O)[C@H](C)O2)O1 [BCH-691, (1'S,1R,3S)-Methyl-{11-hydroxy-1-(2',3',6'-trideoxy-3'-trifluoroacetamido-4'-hydroxy-L-lyxoheoxpyranose)-5,12-dioxo-3,4,5,12-tetrahydroanthraceno[2,3-c]pyran-3-yl}formate] | most active; also recorded: Good broad spectrum activity | 55.0 ± 10.0 | 155.5 ± 50.3 |  |
| CC(=O)Oc1c2c(c(O)c3ccccc13)C(=O)C1=C(C2=O)C(O)OC(C(C)=O)C1 (stereo not drawn) [BCH-704, Methyl(11-acetoxy-1,6-dihydroxy-5,12-dioxo-3,4,5,12-tetrahydroanthraceno[2,3-c]pyran-3-yl)ketone] | most active; also recorded: Specificity for breast cancer |  |  |  |
| Methyl(11-hydroxy-5,12-dioxo-3,4,5,12-tetrahydroanthraceno[2,3-c]pyran-3-yl)ketone and Methyl(5-hydroxy-5,12-dioxo-3,4,5,12-tetrahydroanthraceno[2,3-c]pyran-3-yl)ketone [BCH-687] | most active; also recorded: responded well | 85.0 ± 44.2 | 162.6 ± 70.4 | Average LOG10 GI50 [3]: -5.09 ± 0.25 log molar; Average LOG10 LC50 [4]: > -4.18 log molar; Average LOG10 GI50 [5]: -5.05 ± 0.27 log molar; Average LOG10 LC50 [6]: > -4.23(± 0.07) log molar; Average LOG10 GI50, Mean Potency in solid tumors [7]: -4.87 ± 0.17 log molar; Average LOG10 GI50 [8]: -4.59 ± 0.16 log molar; Average LOG10 LC50 [9]: -4.15(± 0.11) log molar; Average LOG10 LC50 [10]: > -4.00 log molar; Average LOG10 GI50 [11]: -4.91 ± 0.12 log molar; Average LOG10 GI50 [12]: -4.95 ± 0.28 log molar; Average LOG10 LC50, Mean Potency in solid tumors [13]: -4.21(± 0.05) log molar |
